This is an account of results in patent US20130310347A1, “MULTI-MODALITY MOLECULAR IMAGING HIGH-THROUGHPUT ASSAY FOR IDENTIFYING HEAT SHOCK PROTEIN 90 (HSP90) INHIBITORS” (The Board of Trustees of the Leland Stanford Junior …, priority 2012, published 2013).

The target of one assay is T1, Hsp90β/p23 interactions (Homo sapiens, UniProt P08238).
T1 construct: expressed in transfected cells; also with FL-eGFP reporter (293Tβ-FG) and as xenografts in nude mice
In words: HTS dose response, 293T cells stably expressing Hsp90β/p23 split RL reporters. The settings on record: inhibition of bioluminescence signals by 50% vs carrier control; 8 point dose response 0.156-20 μM; 24 h. It counts as cell-based. As for the experimental part: Novel Hsp90 inhibitors using a commercial 30,176 small molecule chemical compound library with unknown targets and molecular mechanisms (FIG. 9B) were also identified. 293T cells stably expressing Hsp90α/p23 or Hsp90β/p23 split RL reporters were treated with each compound at 8.3 μM.
Baseline complemented RL activities were determined 90 mins after addition of 20 μl of ENDUREN® (10 μM final concentration) (Promega, Madison, Wis.) using the Analyst GT (Molecular Device, Sunnyvale, Calif.), with an acquisition time of 0.2 sec per well. Cells were incubated with compounds for 24 h prior to re-determination of complemented RL activities, and normalized to the mean RL activities of untreated cells in columns 1-2. Another small molecule chemical library with 30,176 compounds (SPECS, Wakefield, R.I.) was also used in screening modulators of Hsp90(α/β)/p23 inhibitors (at 8.3 μM, one drug per well for initial screening). For dose response/confirmation assay the compounds were tested in duplicate in an 8 point (0.156-20 μM) dose response assay for RL activities for both Hps90(α/β)/p23 interactions. The effect of each compound on cell proliferation at 20 μM was determined using Cell Titer-Blue assay in duplicate wells. […]

Assay [1] has as its system Hsp90(α/β)/p23 interactions. In words: BLI of lead compounds in intact 293T cells with split RL reporters. The assay is classed as cell-based, human. As for the experimental part:
Bioluminescence signals were quantified and normalized for cell number and that of carrier control treated cells (right). Results were expressed as mean±S.E.M.
To determine the effect of lead compounds on disruption of Hsp90(α/β)/p23 interactions in intact cells, 3.5×10^4 293T cells stably transfected with split RL reporters as described in Chan et al., (2008) Cancer Res. 68: 216-226, were plated in each well in the 96-well black wall plate (Costar, Corning, N.Y.) and allowed to attach for 24 h, prior to treatment with different concentrations of the lead compounds for 24 h. The 10 μg/ml of ENDUREN® (in […] of cell culture medium) was added to each well for 1.5 h and RL activities were determined. BLI signals were normalized to that of cell number for each well (determined by Alamar Blue assay (Invitrogen, Carlsbad, Calif.)), prior to normalization to carrier control-treated cells.

The test system of a further assay is Hsp90 client proteins. The assay can be described thus: Western blotting of Hsp90 client proteins in normal MEF cells. The assay is classed as cell-based. The settings on record: normal mouse embryonic fibroblasts. From the text:
CP9 had no effect on the expression of the Hsp90 client proteins in normal mouse embryonic fibroblasts (MEF) cells (FIG. 10C).
(In general: A western blot detects proteins with antibodies after separation by electrophoresis.)

The test system of the next assay is cellular Hsp90. The assay can be described thus: 3H-17AAG uptake in intact HT29 cells. It counts as cell-based. To be noted: CP9 0.4 to 12.5 μM, 3H-17AAG 0.5 μM, 1 h, dose-dependent, p<0.05. As for the experimental part: FIG. 5D is a graph illustrating the inhibition of ^3H-17AAG uptake by CP9 in HT29 cells. HT29 cells were pre-incubated with different concentrations of CP9 together with ^3H-17AAG (0.5 μM) for 1 h followed by 1 h of wash-out of unbound ^3H-17AAG in fresh medium. The amount of ^3H-17-AAG incorporated intracellularly was determined by scintillation counting of cell lysates, followed by normalization for protein content and to carrier control-treated cells. Cells incubated with 5 μM of PU-H71 served as a positive control. Results are expressed as means of triplicates±S.E.M. *, p<0.05 vs. carrier control-treated cells.
To confirm the direct binding of CP9 to Hsp90(α/β), an in vitro competitive binding assay using purified Hsp90α and Hsp90β was performed using radiolabeled Hsp90 inhibitor ^3H-17AAG. Hsp90 proteins were pre-bound with CP9 or cold 17-AAG as a control prior to incubation with ^3H-17AAG. Unbound ^3H-17AAG was removed and the amount of ^3H-17AAG bound to the Hsp90 proteins was determined. […]
To determine if CP9 binds to cellular Hsp90, an uptake study of ^3H-17AAG (Moravek Biochemicals, Brea, Calif.) was performed. […] The total counts in each sample were normalized to that of the dose added to each well and to the amount of protein, and expressed as mean counts/dose/μg protein±S.E.M.

SMILES strings stand for the structures.

T1 sequence (P08238 whole entry): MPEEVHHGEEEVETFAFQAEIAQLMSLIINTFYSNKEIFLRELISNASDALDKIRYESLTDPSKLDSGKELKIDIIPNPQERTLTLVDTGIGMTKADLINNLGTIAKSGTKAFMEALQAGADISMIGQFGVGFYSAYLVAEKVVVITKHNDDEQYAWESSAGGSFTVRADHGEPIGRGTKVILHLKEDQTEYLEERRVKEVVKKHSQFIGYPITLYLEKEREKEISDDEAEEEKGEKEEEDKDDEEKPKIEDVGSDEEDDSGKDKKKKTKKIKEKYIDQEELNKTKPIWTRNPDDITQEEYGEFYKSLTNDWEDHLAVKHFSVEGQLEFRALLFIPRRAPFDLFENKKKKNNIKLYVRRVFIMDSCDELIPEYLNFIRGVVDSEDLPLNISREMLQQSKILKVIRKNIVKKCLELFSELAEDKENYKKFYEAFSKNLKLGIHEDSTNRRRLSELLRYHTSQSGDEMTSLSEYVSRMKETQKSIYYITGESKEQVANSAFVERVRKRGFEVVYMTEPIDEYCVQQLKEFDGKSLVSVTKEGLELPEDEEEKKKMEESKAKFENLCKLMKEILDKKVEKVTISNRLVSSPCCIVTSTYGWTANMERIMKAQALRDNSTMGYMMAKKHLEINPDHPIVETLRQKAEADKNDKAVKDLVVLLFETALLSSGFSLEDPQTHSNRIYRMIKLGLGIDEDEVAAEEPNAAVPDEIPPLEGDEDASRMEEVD

In general, IC50 refers to the concentration at which inhibition is half-maximal. Turning to `Cc1cc(NC(=O)CSc2nc(-c3cccs3)cc(C(F)(F)F)n2)no1` [CP9, N-(5-methylisoxazol-3-yl)-2-(4-(thiophen-2-yl)-6-(trifluoromethyl)pyrimidin-2-ylthio)acetamide], it took 15.3 µM to reach half-maximal inhibition on Hsp90β/p23 interactions (IC50). Further, the “selectivity for Hsp90α/p23 BLI signals relative to Hsp90β/p23 interactions” value in assay [1] (293T cells) is given as “more selective for inhibition of Hsp90α/p23 BLI signals”. Further, in assay [1] (24 h, normalized for cell number and carrier control), the “bioluminescence signals in 293T cells expressing Hsp90α/p23 and Hsp90β/p23 split RL reporters” value was “dose-dependent decrease”. Moreover, the “expression of Hsp90 client proteins” value with Hsp90 client proteins is listed as “no effect”. Moreover, the “maximum reduction in uptake of 3H-17AAG relative to carrier control” value with cellular Hsp90 came to 30%.
